Data taken from PubChem BioAssay (NCI).
Values joined by “and” are separate entries in the source; they are usually repeats but may differ in a detail not shown here. Equal values may be shown once.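 Growth conditions: 96-well plates. Treatment: test compound, 48 hours, 5 concentrations. Analysis: linear interpolation between bracketing concentrations; unreached endpoints set to highest concentration. GI50: concentration for 50% inhibition of growth. TGI denotes the concentration required for complete inhibition of growth.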

Test system: MDA-MB-468 breast
Experiment: inhibition of tumour cell growth, NCI panel, 48 h

SMILES	GI50	TGI
CCN1CCN(CC(=O)Nc2nc3ccc(NCc4ccc(Br)cc4)cc3s2)CC1	1740 nM	4510 nM
O=C1[C@H](Cc2ccc(O)cc2)N2C(=O)CCN(C(=O)NCc3ccccc3)[C@H]2CN1Cc1cccc2ccccc12	5660 nM	23200 nM
COc1ccc([C@@H]2[C@@H](Oc3ccccc3)C(=O)N2c2cc(OC)c(OC)c(OC)c2)cc1F	111 nM	> 100000 nM
Oc1ccc(CSc2nnc(-c3ccc(Oc4ccccc4)cc3)o2)c2cccnc12	1760 nM	> 100000 nM
Cc1ccc(-c2nc([P+](c3ccccc3)(c3ccccc3)c3ccccc3)c(N3CCOCC3)o2)cc1	248 nM	870 nM
COc1cc(/C=C/C(=O)c2nc3cc(F)ccc3nc2C)cc(OC)c1OC	2750 nM	> 100000 nM
COc1cc(/C=C/c2cc(/C=C/c3ccc(O)c(OC)c3)n(C(=O)Nc3ccc(C)cc3)n2)ccc1O	301 nM	1710 nM
CN(C)c1ccc(/C=N/N=C(\C#N)[S][Sn]([Cl])([c]2ccccc2)[c]2ccccc2)cc1	480 nM	2000 nM
CC(C)c1ccc2c(c1)CCC1C2CCCC1(C)NCc1ccccc1 (configuration not stated)	1900 nM	4160 nM
Oc1c(Br)cc(Cl)cc1C(c1cc(Cl)cc(Br)c1O)C(Cl)(Cl)Cl	2200 nM	7250 nM
CN1CCN(C(=O)/C=C/c2ccc([N+](=O)[O-])o2)CC1	12100 nM	28500 nM
OCc1ccc(N2CCc3ccc(F)cc3C2)cc1Cl	< 12.9 nM	35.1 nM
CCN(CC)CCn1c2ccc(O)cc2c2sc3cc(OC)ccc3c(=O)c21	1540 nM	3000 nM
COc1ccc(-n2c(=O)c3ccccc3n(Cc3ccc(C(=O)NO)cc3)c2=O)cc1	1440 nM	3490 nM
CN1CCN(c2ccc(NC(=O)Nc3ccc4c(ccn4-c4cccc(C(N)=O)n4)c3)cc2C(F)(F)F)CC1	4300 nM	12100 nM
CN(C)CCCC1(c2ccc(F)cc2)OCc2cc(-c3csc4ccccc34)ccc21 (configuration not stated)	1540 nM	3120 nM
O=C(NO)c1ccc(CNc2cccc3nc(C4CC4)n(-c4ccccc4)c(=O)c23)cc1	1880 nM	5160 nM
Oc1ccc(CSc2nnc(-c3ccccc3)n2-c2ccccc2)c2cccnc12	497 nM	6820 nM
CCN1CCN(c2ccc(NC(=O)Nc3ccc4c(ccn4-c4ccnc(C(=O)NC)c4)c3)cc2C(F)(F)F)CC1	> 14300 nM	> 14300 nM
O=S(=O)(Nc1ccccc1)c1ccc(C2CC3(Cl)C(Cl)=C(Cl)C2(Cl)C3(Cl)Cl)cc1 (configuration not stated)	2640 nM	7860 nM
CC1=C(C(=O)Nc2ccc3[nH]ncc3c2)C(c2ccc(F)cc2)N=C(c2ccc(C(F)(F)F)nc2)N1 (configuration not stated)	5650 nM	15500 nM

SMILES	GI50	TGI
CNS(=O)(=O)Nc1nccc(Cc2c(C)c3ccc(Oc4ncccn4)cc3oc2=O)c1F	3460 nM and > 5440 nM	82600 nM and > 10000 nM
CC[C@]12C=CCN3CC[C@@]4(c5ccc(OC)cc5N(C)[C@H]4[C@@](O)(C(=O)OC)[C@@H]1OC(=O)CCCN1CCN(CCCC(=O)O[C@@H]4[C@]5(CC)C=CCN6CC[C@@]7(c8ccc(OC)cc8N(C)[C@H]7[C@@]4(O)C(=O)OC)[C@@H]65)CC1)[C@@H]32	252 nM	730 nM
Cc1cccc(Oc2ccc(Nc3ncnc4ccc(NC(=O)CN(C)C)cc34)cc2Cl)c1	180 nM	1380 nM
CCOC(=O)C#Cc1c(C(=O)OCC)nnn1[C@@H]1O[C@H](COC)[C@@H](OC)[C@H]1OC	2130 nM	5430 nM
COc1ccccc1CNCCCN1C(=O)c2ccc3c4c(ccc(c24)C1=O)C(=O)N(CCCNCc1ccccc1OC)C3=O	138 nM	288 nM
O=C1C[C@@H]2OCC=C3C[N+]4([O-])CC[C@]56c7ccccc7N1[C@H]5[C@H]2[C@H]3C[C@@H]64 (some centres not stated)	> 100000 nM	> 100000 nM
COc1ccc(-c2c(Nc3ccccn3)nc3c(C4=CCCCC4)c(-c4ccccc4)[nH]n3c2=O)cc1	1910 nM	8650 nM
O=[N+]([O-])c1ccc(N/N=C\c2cc(Br)ccc2O)nc1	1710 nM	4320 nM
CNCc1cccc2c1OCCOCCOCCNS(=O)(=O)c1ccc(cc1)-c1cnc(N)c(n1)C(=O)N2	1510 nM	3250 nM
FC(F)(F)c1cccc(CNC2CCN(CCc3ccccc3)CC2)c1	13500 nM	30200 nM
COc1ccc(Cn2c(Br)c3c(c2-c2cc(OC)c(OC)c(OC)c2)CCc2sc(N)nc2-3)cc1	3130 nM	41900 nM
O=C1NC(=NCc2cccs2)O/C1=C\c1ccc2ncccc2c1	3410 nM	13900 nM
C/C(=C\c1csc(C)n1)[C@@H]1C[C@@H]2O[C@]2(C)CCC[C@H](C)[C@H](O)[C@@H](C)C(=O)C(C)(C)[C@@H](O)CC(=O)N1	0.233 nM	0.58 nM
COc1cc(NC(=O)COc2ccccc2)c(C(N)=O)cc1OC	848 nM	72100 nM
O=C(O)CSc1cc(NS(=O)(=O)c2ccc(Br)cc2)c2ccccc2c1O	1870 nM	4340 nM
O=c1c(Oc2ccc(F)cc2F)cc2cnc(NC3CCOCC3)nc2n1C1CC1	> 25000 nM	> 25000 nM
O=C(CCN1CCOCC1)Nc1ccc(Cn2nnc3c2C(=O)c2nnn(Cc4ccc(NC(=O)CCN5CCOCC5)cc4)c2C3=O)cc1	257 nM	627 nM
Nc1cc(C(F)(F)F)c(-c2nc(N3CCOCC3)nc(N3CCOCC3)n2)cn1	180 nM	897 nM
CN(C)[C@@H]1C(=O)C(C(=O)NCc2nc3[nH]cnc(=S)c3[nH]2)=C(O)[C@@]2(O)C(=O)C3=C(O)c4c(O)cccc4[C@@](C)(O)[C@H]3C[C@@H]12	955 nM	> 100000 nM
N#C[Se]CCN1C(=O)c2ccccc2C1=O	2010 nM	6990 nM
